Data from patent publication US20200140812A1, “NOVEL METHODS FOR THE GENERATION AND USE OF HUMAN INDUCED NEURAL BORDER STEM CELLS” (HI-STEM gGmbH, priority 2017, published 2020).

Assays:
P2RX3-receptors = molecular target: T1, P2RX3-receptors (Homo sapiens, UniProt P56373); test: Calcium flux measurements (Fluo-3 AM) in iNBSC-derived sensory neurons; format: cell-based
T1 construct: endogenous in cells; host or cells: sensory neurons differentiated from human iNBSCs (WT and SCN9a-/- cultures)
T1 sequence (P56373 1-397): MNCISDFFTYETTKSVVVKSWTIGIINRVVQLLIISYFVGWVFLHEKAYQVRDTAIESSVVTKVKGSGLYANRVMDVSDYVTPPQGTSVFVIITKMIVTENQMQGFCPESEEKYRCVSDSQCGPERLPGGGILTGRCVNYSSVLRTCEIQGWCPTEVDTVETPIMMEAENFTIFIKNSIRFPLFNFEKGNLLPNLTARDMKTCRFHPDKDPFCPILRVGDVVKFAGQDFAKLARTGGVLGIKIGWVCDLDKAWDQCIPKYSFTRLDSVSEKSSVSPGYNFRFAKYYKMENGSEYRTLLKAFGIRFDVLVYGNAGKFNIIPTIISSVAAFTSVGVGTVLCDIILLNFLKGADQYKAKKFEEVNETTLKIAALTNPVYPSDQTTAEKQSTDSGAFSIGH
Description: Cell cultures were incubated in a solution containing the cell-permeable fluorescent Ca2+ indicator Fluo-3 AM (2 μM; F1242, Thermo Scientific™) and Cell Tracker Red CMTPX (1 μM; C34552, Thermo Scientific™) to delineate cell membranes. Dye loading was carried out in an incubator at 37° C., 5% CO2 for 30 min.
Imaging of fluorescently labeled cells was performed on a TCS SP5 microscope (Leica) equipped with a 20×(1 numerical aperture) water-immersion objective. Images (512×512 pixels) were acquired at 1000 Hz speed every 0.8-1.6 seconds with 0.5 μm per pixel resolution in the xy dimension, and 3-4 μm steps in the z dimension. Argon and HeNe-543 lasers were used to excite Fluo-3 AM and Cell Tracker Red CMTPX dyes, respectively. […] After recording baseline fluorescence for 2 minutes, α,β-methylene ATP was applied (30 μM in ACSF; COMPANY) for 2 minutes. […]
We obtained relative fluorescence changes (Fi/F0), where F0 is the fluorescence image formed by averaging the first 50 frames of the sequence, and F(i) represents each (i) frame of the recording. […]
We then studied global calcium activity by averaging fluorescence intensity in the whole image before and in response to stimulation with α,β-methylene ATP in WT−(n=3) and SCN9−/− (n=4) neuronal cultures.

pNBSCs = test: Culture of pNBSCs on Matrigel in absence of feeders with Notch-ligands; format: cell-based, mouse; conditions: cultured on MG with DII4 and Jagged1 together, 500 ng/ml each
Description: a, Preparation of E8.5 stage embryos for isolation of pNBSCs. Representative microscopy pictures of an E8.5 stage embryo prior to dissection of neural tissue. […] Results are shown for two independent pNBSC clones and E13.5 stage derived RG-like SCs (n=3; t-test, **P<0.01, Mean with SEM). g, Culture of pNBSCs on inactivated MEFs (feeder) or Matrigel in presence or absence of Notch-ligands 500 ng/ml DII4 and 500 ng/ml Jagged-1. h, Regional identity of pNBSCs. mRNA expression of region specific markers was determined in three independent pNBSCs lines. Expression was normalized to whole E13.5 stage fetal brains. i, Flow cytometry data of a pNBSC line under maintenance and neural crest priming condition. pNBSCs were either cultured in CAP or CA+BMP4 for 5 days before levels of Ssea1 and P75 were determined by flow cytometry. j, Immunofluorescence stainings for serotonin on neuronal differentiation. pNBSCs were differentiated in presence of Purmorphamine for 3 days and matured for additional 2 weeks before stainings were performed; scale bar 50 μm. k, BF pictures of pNBSCs embedded as single cell suspension in MG after CNS- and NC-priming. pNBSCs were cultured in CSP for 6 days (upper panel) or CABF for 10 days (lower panel). […]

Compound	rapid differentiation of pNBSCs in the absence of feeders (pNBSCs)	further results
O=C(O)c1cc(C(=O)O)c(C(=O)N(Cc2cccc(Oc3ccccc3)c2)[C@H]2CCCc3ccccc32)cc1C(=O)O [A-317491]	–	α,β-Methylene-ATP-induced calcium flux (neuronal activity) in the presence of antagonist (P2RX3-receptors; 1 μM A-317491, stimulation with 30 μM α,β-methylene ATP, WT sensory neurons, compared to controls, t-test P<0.05): significantly reduced
Nc1ncnc2c1ncn2[C@@H]1O[C@H](COP(=O)(O)CP(=O)(O)OP(=O)(O)O)[C@@H](O)[C@H]1O [α,β-Methylene-ATP]	–	neuronal activity by calcium flux measurements upon stimulation (P2RX3-receptors; 30 μM α,β-methylene ATP, WT iNBSC-derived sensory neurons, Fluo-3 AM fluorescence relative to baseline): robust increase of activity
DII4: Notch-ligand	partially halted	–
Jagged1: Notch-ligand	partially halted	–
